# Laboratory results as given in article PMC11274128, “Modification and Synergistic Studies of a Novel Frog Antimicrobial Peptide against Pseudomonas aeruginosa Biofilms” (Antibiotics, 2024).
# Read-outs that look alike come from different tables or passages of the source. Bridge positions count the residues as written; N and C are the ends. Peptide text beside a SMILES is read from it.
# How the values were obtained:
# G+ Bacteria = test: Geometric mean of MICs and TI value; type: cell-based; settings: geometric mean of MICs against tested Gram-positive bacteria
# Experimental: The therapeutic potential of antimicrobial agents was valued based on their selectivity toward bacteria in reference to erythrocytes. The TI value was calculated from the results of antibacterial and haemolysis experiments of peptides using the following formula:TI value = HC10 / GMMICs.
# GM was the geometric mean of MICs against all tested bacteria.
# A. baumannii BAA 747 = settings: checkerboard MIC, planktonic A. baumannii BAA 747, 37 °C, 24 h, OD 550 nm
# Experimental: (§1) The bacteria were cultured, subcultured, diluted, and incubated as the methods of the MIC assay. The pure peptides and antibiotics were weighed and, respectively, dissolved in DMSO and dd water to make the final concentration of 2× MIC. […] Different concentrations of peptide and antibiotic solutions were added to a 96-well plate in the form of a checkerboard grid. The blank control and growth control were still 100 µL medium and 100 µL bacterial culture. The plate was incubated at 37 °C for 24 h. After that, the plate reader was used to monitor the absorbance of each well at 550 nm (The Synergy TM HT, BioTek, Winooski, VT, USA).
# (§2) Parameter fractional inhibitory concentration indices (FICIs) were used to evaluate the synergistic effect, and the value of that was calculated as follows:FICI = FICa + FICb FICa = MIC combination peptide/MIC single peptide FICb = MIC combination antibiotic/MIC single antibiotic
# (§3) The FICI value was interpreted as “synergy” (FICI ≤ 0.5), “no interaction” (0.5 < FICI ≤ 4), or “antagonism” (FICI > 4).
# E. coli ATCC 8739 = settings: checkerboard MIC, planktonic E. coli ATCC 8739, 37 °C, 24 h, OD 550 nm
# Experimental: as §1, §2, §3
# E. faecalis NCTC 12697 = settings: checkerboard MIC, planktonic E. faecalis NCTC 12697, 37 °C, 24 h, OD 550 nm
# Experimental: as §1, §2, §3
# K. pneumoniae ATCC 43816 = settings: checkerboard MIC, planktonic K. pneumoniae ATCC 43816, 37 °C, 24 h, OD 550 nm
# Experimental: as §1, §2, §3
# MRSA NCTC 12493 = settings: checkerboard MIC, planktonic MRSA NCTC 12493, 37 °C, 24 h, OD 550 nm
# Experimental: as §1, §2, §3
# [1] = test system: P. aeruginosa ATCC CRM 9027; settings: checkerboard MIC, planktonic P. aeruginosa ATCC CRM 9027, 37 °C, 24 h, OD 550 nm
# Experimental: as §1, §2, §3
# S. aureus ATCC 6538 = settings: checkerboard MIC, planktonic S. aureus ATCC 6538, 37 °C, 24 h, OD 550 nm
# Experimental: as §1, §2, §3
# [2] = test system: A. baumannii BAA 747 biofilm; settings: checkerboard MBIC, 24 h, crystal violet, 595 nm
# Experimental: as §2, §3
# (§4) The bacteria were also cultured, subcultured, diluted, and incubated as the methods of the MBIC assay. All experimental groups were included in a peptide and antibiotic co-administration of MIC assay. To ensure that the mixture was evenly dispersed, the plate was placed in a shaker and incubated for 24 h at 37 and 220× g. The plate was twice rinsed with 200 µL of PBS solution following a 24 h incubation period with peptides and diluted bacterial cultures. Each well received a separate addition of 100 μL of methanol and 0.1% crystal violet solution (Sigma-Aldrich, London, UK), which was left there for 20 min. The plate was then carefully cleaned under running water. Following the drying process, each well received 160 µL of acetic acid (33% in dd water, Sigma-Aldrich, UK). Additionally, the absorbance was measured at λ = 595 nm using the Synergy HT plate reader. FICI values were calculated and identified for our peptide and antibiotic co-administration of MIC assay.
# [3] = test system: K. pneumoniae ATCC 43816 biofilm; settings: checkerboard MBIC, 24 h, crystal violet, 595 nm
# Experimental: as §2, §3, §4
# MRSA NCTC 12493 biofilm = settings: checkerboard MBIC, 24 h, crystal violet, 595 nm
# Experimental: as §2, §3, §4
# P. aeruginosa 01 biofilm = settings: checkerboard MBIC, 24 h, crystal violet, 595 nm
# Experimental: as §2, §3, §4
# P. aeruginosa 14 biofilm = settings: checkerboard MBIC, 24 h, crystal violet, 595 nm
# Experimental: as §2, §3, §4
# [4] = test system: P. aeruginosa ATCC 27853 biofilm; settings: checkerboard MBIC, 24 h, crystal violet, 595 nm
# Experimental: as §2, §3, §4
# [5] = test system: P. aeruginosa ATCC BAA-2108 biofilm; settings: checkerboard MBIC, 24 h, crystal violet, 595 nm
# Experimental: as §2, §3, §4
# [6] = test system: S. aureus ATCC 6538 biofilm; settings: checkerboard MBIC, 24 h, crystal violet, 595 nm
# Experimental: as §2, §3, §4
# [7] = peptide combined with gentamicin
# [8] = peptide combined with levofloxacin
# [9] = peptide combined with vancomycin
smiles,measurement,setting,value
CC[C@H](C)[C@H](NC(=O)[C@H](CCCCN)NC(=O)[C@H](CCCCN)NC(=O)CNC(=O)[C@H](C)NC(=O)CNC(=O)[C@H](CC(C)C)NC(=O)[C@@H](NC(=O)CNC(=O)[C@H](CO)NC(=O)[C@H](CC(C)C)NC(=O)[C@H](CC(C)C)NC(=O)CN)C(C)C)C(=O)N[C@H](C(=O)N[C@H]1CSSC[C@@H](C(=O)O)NC(=O)[C@H](CCCNC(=N)N)NC(=O)CNC(=O)[C@H](CO)NC(=O)[C@H](CC(C)C)NC(=O)CNC1=O)C(C)C [Nigrosin-6VL] (H-GLLSGVLGAGKKIVCGLSGRC-OH; disulfide 15-21),"GM (geometric mean of MICs), G+ Bacteria",G+ Bacteria,101.59 µM
same,FICI,A. baumannii BAA 747; peptide combined with cefepime,1
same,FICI,A. baumannii BAA 747; [7],0.1875
same,FICI,A. baumannii BAA 747; [8],>4
same,FICI,A. baumannii BAA 747; [9],1.25
same,FICI,E. coli ATCC 8739; peptide combined with cefepime,0.375
same,FICI,E. coli ATCC 8739; [7],0.125
same,FICI,E. coli ATCC 8739; [8],0.375
same,FICI,E. coli ATCC 8739; [9],1.125
same,FICI,E. faecalis NCTC 12697; peptide combined with cefepime,0.125
same,FICI,E. faecalis NCTC 12697; [7],0.625
same,FICI,E. faecalis NCTC 12697; [8],0.625
same,FICI,E. faecalis NCTC 12697; [9],0.625
same,FICI,K. pneumoniae ATCC 43816; peptide combined with cefepime,0.1875
same,FICI,K. pneumoniae ATCC 43816; [7],0.1875
same,FICI,K. pneumoniae ATCC 43816; [8],0.625
same,FICI,K. pneumoniae ATCC 43816; [9],1.125
same,FICI,MRSA NCTC 12493; peptide combined with cefepime,0.75
same,FICI,MRSA NCTC 12493; [7],0.5
same,FICI,MRSA NCTC 12493; [8],2
same,FICI,MRSA NCTC 12493; [9],1
same,FICI,[1]; peptide combined with cefepime,0.5
same,FICI,[1]; [7],0.5
same,FICI,[1]; [8],0.5
same,FICI,[1]; [9],>4
same,FICI,S. aureus ATCC 6538; peptide combined with cefepime,0.625
same,FICI,S. aureus ATCC 6538; [7],1.5
same,FICI,S. aureus ATCC 6538; [8],0.625
same,FICI,S. aureus ATCC 6538; [9],2.25
same,Biofilm FICI,[2]; peptide combined with cefepime,0.5
same,Biofilm FICI,[2]; [7],0.5
same,Biofilm FICI,[3]; peptide combined with cefepime,1.25
same,Biofilm FICI,[3]; [7],0.5
same,Biofilm FICI,MRSA NCTC 12493 biofilm; peptide combined with cefepime,0.75
same,Biofilm FICI,MRSA NCTC 12493 biofilm; [7],0.375
same,Biofilm FICI,P. aeruginosa 01 biofilm; peptide combined with cefepime,0.625
same,Biofilm FICI,P. aeruginosa 01 biofilm; [7],0.625
same,Biofilm FICI,P. aeruginosa 14 biofilm; peptide combined with cefepime,0.25
same,Biofilm FICI,P. aeruginosa 14 biofilm; [7],0.5
same,Biofilm FICI,[4]; peptide combined with cefepime,1
same,Biofilm FICI,[4]; [7],0.25
same,Biofilm FICI,[5]; peptide combined with cefepime,0.625
same,Biofilm FICI,[5]; [7],1
same,Biofilm FICI,[6]; peptide combined with cefepime,1
same,Biofilm FICI,[6]; [7],0.5
CC[C@H](C)[C@H](NC(=O)[C@H](CCCCN)NC(=O)[C@H](CCCCN)NC(=O)CNC(=O)[C@H](C)NC(=O)[C@H](CCCNC(=N)N)NC(=O)[C@H](CC(C)C)NC(=O)[C@@H](NC(=O)[C@H](C)NC(=O)[C@H](CCCNC(=N)N)NC(=O)[C@H](CC(C)C)NC(=O)[C@H](CC(C)C)NC(=O)CN)C(C)C)C(=O)N[C@H](C(=O)N[C@H]1CSSC[C@@H](C(=O)O)NC(=O)[C@H](CCCNC(=N)N)NC(=O)CNC(=O)[C@H](CO)NC(=O)[C@H](CC(C)C)NC(=O)CNC1=O)C(C)C [Peptide 2170-2R] (H-GLLRAVLRAGKKIVCGLSGRC-OH; disulfide 15-21),FICI,A. baumannii BAA 747; peptide combined with cefepime,1.5
same,FICI,A. baumannii BAA 747; [7],0.25
same,FICI,A. baumannii BAA 747; [8],>4
same,FICI,A. baumannii BAA 747; [9],0.625
same,FICI,E. coli ATCC 8739; peptide combined with cefepime,0.5312
same,FICI,E. coli ATCC 8739; [7],0.125
same,FICI,E. coli ATCC 8739; [8],0.375
same,FICI,E. coli ATCC 8739; [9],>4
same,FICI,E. faecalis NCTC 12697; peptide combined with cefepime,0.1562
same,FICI,E. faecalis NCTC 12697; [7],0.625
same,FICI,E. faecalis NCTC 12697; [8],0.625
same,FICI,E. faecalis NCTC 12697; [9],0.625
same,FICI,K. pneumoniae ATCC 43816; peptide combined with cefepime,0.1875
same,FICI,K. pneumoniae ATCC 43816; [7],0.1562
same,FICI,K. pneumoniae ATCC 43816; [8],1
same,FICI,K. pneumoniae ATCC 43816; [9],1.125
same,FICI,MRSA NCTC 12493; peptide combined with cefepime,0.75
same,FICI,MRSA NCTC 12493; [7],0.375
same,FICI,MRSA NCTC 12493; [8],1.125
same,FICI,MRSA NCTC 12493; [9],0.625
same,FICI,[1]; peptide combined with cefepime,0.5
same,FICI,[1]; [7],0.5
same,FICI,[1]; [8],0.625
same,FICI,[1]; [9],1.125
same,FICI,S. aureus ATCC 6538; peptide combined with cefepime,1
same,FICI,S. aureus ATCC 6538; [7],1
same,FICI,S. aureus ATCC 6538; [8],0.625
same,FICI,S. aureus ATCC 6538; [9],0.625
same,Biofilm FICI,[2]; peptide combined with cefepime,0.625
same,Biofilm FICI,[2]; [7],0.75
same,Biofilm FICI,[3]; peptide combined with cefepime,3
same,Biofilm FICI,[3]; [7],1.125
same,Biofilm FICI,MRSA NCTC 12493 biofilm; peptide combined with cefepime,0.5
same,Biofilm FICI,MRSA NCTC 12493 biofilm; [7],1.125
same,Biofilm FICI,P. aeruginosa 01 biofilm; peptide combined with cefepime,0.5
same,Biofilm FICI,P. aeruginosa 01 biofilm; [7],1
same,Biofilm FICI,P. aeruginosa 14 biofilm; peptide combined with cefepime,0.375
same,Biofilm FICI,P. aeruginosa 14 biofilm; [7],1
same,Biofilm FICI,[4]; peptide combined with cefepime,0.5
same,Biofilm FICI,[4]; [7],0.25
same,Biofilm FICI,[5]; peptide combined with cefepime,1
same,Biofilm FICI,[5]; [7],>3
same,Biofilm FICI,[6]; peptide combined with cefepime,1
same,Biofilm FICI,[6]; [7],0.25
